Experimental data reported in PubChem BioAssay (NCI).
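GI50 is the concentration that inhibits growth by half. At the TGI there is no net growth.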

Assays:
Assay in all cases: NCI tumour cell line growth inhibition, 384-well format
[1] = tested on: TK-10 renal
[2] = tested on: ACHN renal
[3] = tested on: MDA-MB-231 breast
[4] = tested on: IGROV1 ovarian
[5] = tested on: RPMI-8226 leukemia
[6] = tested on: SK-OV-3 ovarian
[7] = tested on: OVCAR-5 ovarian
[8] = tested on: SK-MEL-5 melanoma
[9] = tested on: HT29 colon
[10] = tested on: RXF 393 renal
[11] = tested on: NCI-H23 lung
[12] = tested on: SF-268 CNS
[13] = tested on: OVCAR-3 ovarian
[14] = tested on: HL-60(TB) leukemia
[15] = tested on: A498 renal
[16] = tested on: NCI-H460 NSCLC
[17] = tested on: HS 578T breast
[18] = tested on: MDA-MB-435 melanoma
[19] = tested on: NCI-H226 lung
[20] = tested on: HCT-15 colon
[21] = tested on: M14 melanoma
[22] = tested on: MOLT-4 leukemia
[23] = tested on: SN12C renal
[24] = tested on: T-47D breast
[25] = tested on: SNB-19 CNS
[26] = tested on: SF-539 CNS
[27] = tested on: A549 NSCLC
[28] = tested on: BT-549 breast
[29] = tested on: 786-0 renal
[30] = tested on: HOP-92 NSCLC
[31] = tested on: PC-3 prostate
[32] = tested on: CAKI-1 renal
[33] = tested on: NCI-H522 lung
[34] = tested on: OVCAR-8 ovarian
[35] = tested on: UACC-62 melanoma
[36] = tested on: SF-295 CNS
[37] = tested on: OVCAR-4 ovarian
[38] = tested on: LOX IMVI melanoma
[39] = tested on: UO-31 renal
[40] = tested on: MDA-MB-468 breast
[41] = tested on: SNB-75 CNS
[42] = tested on: SK-MEL-28 melanoma
[43] = tested on: U251 glioblastoma
[44] = tested on: HOP-62 NSCLC
[45] = tested on: COLO 205 colon
[46] = tested on: KM12 colon
[47] = tested on: MCF7 breast
[48] = tested on: CCRF-CEM leukemia
[49] = tested on: MALME-3M melanoma
[50] = tested on: NCI-H322M lung
[51] = tested on: SW-620 colon
[52] = tested on: DU-145 prostate
[53] = tested on: EKVX NSCLC
[54] = tested on: SR leukemia
[55] = tested on: HCT-116 colon
[56] = tested on: UACC-257 melanoma
[57] = tested on: NCI/ADR-RES ovarian
[58] = tested on: K-562 leukemia
[59] = tested on: HCC-2998 colon

For `COc1cc2c(cc1O)CCN[C@]21CS[C@@H]2c3c(OC(C)=O)c(C)c4c(c3[C@H](COC1=O)N1[C@@H]2[C@H]2c3c(cc(C)c(OC)c3O)C[C@@H]([C@@H]1O)N2C)OCO4`, the GI50 [1] was 2.48 nM, the TGI [1] was 6 nM and the GI50 [2] was 0.685 nM. It also gave a TGI [2] of 2.24 nM, a GI50 [3] of 1 nM and a TGI [3] of 2.56 nM. For the same compound, the GI50 [4] was 0.885 nM, the TGI [4] was 8.12 nM and the GI50 [5] was 0.0686 nM. It also gave a TGI [5] of 0.153 nM, a GI50 [6] of 2.22 nM and a TGI [6] of 7.34 nM. For the same compound, the GI50 [7] was 0.983 nM, the TGI [7] was 9.36 nM and the GI50 [8] was 0.0992 nM. The TGI [8] was 0.345 nM, the GI50 [9] was 0.117 nM and the TGI [9] was 0.245 nM. It also gave a GI50 [10] of 0.0747 nM, a TGI [10] of 0.209 nM and a GI50 [11] of 0.0949 nM. The TGI [11] was 0.309 nM, the GI50 [12] was 0.121 nM and the TGI [12] was 0.542 nM. For the same compound, the GI50 [13] was 0.227 nM, the TGI [13] was 0.698 nM and the GI50 [14] was 0.0567 nM. It also gave a TGI [14] of 0.105 nM, a GI50 [15] of 1.18 nM and a TGI [15] of 2.61 nM. It also gave a GI50 [16] of 0.112 nM, a TGI [16] of 0.454 nM and a GI50 [17] of 0.175 nM. The TGI [17] was 0.555 nM, the GI50 [18] was 0.614 nM and the TGI [18] was 1.09 nM. It also gave a GI50 [19] of 0.0901 nM, a TGI [19] of 0.359 nM and a GI50 [20] of 0.595 nM. For the same compound, the TGI [20] was 5.24 nM, the GI50 [21] was 0.0865 nM and the TGI [21] was 0.237 nM. The GI50 [22] was 0.0228 nM, the TGI [22] was 0.0638 nM and the GI50 [23] was 0.133 nM. It also gave a TGI [23] of 0.715 nM, a GI50 [24] of 0.482 nM and a TGI [24] of 2.33 nM. For the same compound, the GI50 [25] was 0.84 nM, the GI50 [26] was 0.0765 nM and the TGI [26] was 0.185 nM. The GI50 [27] was 0.868 nM, the TGI [27] was 2.37 nM and the GI50 [28] was 0.0545 nM. For the same compound, the TGI [28] was 0.124 nM, the GI50 [29] was 0.0975 nM and the TGI [29] was 0.568 nM. For the same compound, the GI50 [30] was 0.0211 nM, the TGI [30] was 0.0954 nM and the GI50 [31] was 0.396 nM. It also gave a TGI [31] of 1.54 nM, a GI50 [32] of 0.497 nM and a TGI [32] of 4.25 nM. It also gave a GI50 [33] of 0.11 nM, a TGI [33] of 0.447 nM and a GI50 [34] of 0.169 nM. It also gave a TGI [34] of 0.555 nM, a GI50 [35] of 0.099 nM and a TGI [35] of 0.371 nM. The GI50 [36] was 0.0877 nM, the TGI [36] was 0.299 nM and the GI50 [37] was 2.77 nM. For the same compound, the TGI [37] was 5.98 nM, the GI50 [38] was 0.0744 nM and the TGI [38] was 0.234 nM. It also gave a GI50 [39] of 0.514 nM, a TGI [39] of 0.962 nM and a GI50 [40] of 0.0656 nM. It also gave a TGI [40] of 0.147 nM, a GI50 [41] of 0.0952 nM and a TGI [41] of 0.329 nM. For the same compound, the GI50 [42] was 0.459 nM, the TGI [42] was 0.888 nM and the GI50 [43] was 0.17 nM. For the same compound, the TGI [43] was 0.842 nM, the GI50 [44] was 0.0657 nM and the TGI [44] was 0.177 nM. The GI50 [45] was 0.433 nM, the TGI [45] was 0.882 nM and the GI50 [46] was 1.4 nM. It also gave a TGI [46] of 3.58 nM, a GI50 [47] of 0.447 nM and a TGI [47] of 5.54 nM. It also gave a GI50 [48] of 0.0203 nM, a TGI [48] of 0.0389 nM and a GI50 [49] of 0.136 nM. For the same compound, the TGI [49] was 0.37 nM, the GI50 [50] was 0.481 nM and the TGI [50] was 1.03 nM. It also gave a GI50 [51] of 1.61 nM, a TGI [51] of 3.49 nM and a GI50 [52] of 0.31 nM. It also gave a TGI [52] of 0.84 nM, a GI50 [53] of 0.583 nM and a TGI [53] of 1.28 nM. The GI50 [54] was 0.0313 nM, the TGI [54] was 0.0728 nM and the GI50 [55] was 0.653 nM. It also gave a GI50 [56] of 0.546 nM and a TGI [56] of 0.987 nM.

`COc1ccc(-c2ccc3c(N4CCOC[C@@H]4C)nc(N4CCOC[C@@H]4C)nc3n2)cc1CO` was tested, and the GI50 [1] was 93.8 nM, the TGI [1] was 749 nM and the GI50 [2] was 25.4 nM. It also gave a TGI [2] of 11500 nM, a GI50 [57] of 102 nM and a TGI [57] of 26700 nM. It also gave a GI50 [3] of 21.9 nM, a TGI [3] of 11100 nM and a GI50 [4] of 12.2 nM. For the same compound, the TGI [4] was 56.9 nM, the GI50 [5] was less than 10 nM and the TGI [5] was 10 nM. It also gave a GI50 [6] of 17.6 nM, a TGI [6] of 365 nM and a GI50 [7] of 30.2 nM. For the same compound, the TGI [7] was 1900 nM, the GI50 [8] was 10.5 nM and the TGI [8] was 89.1 nM. It also gave a GI50 [9] of 102 nM, a TGI [9] of 14700 nM and a GI50 [10] of 27.3 nM. It also gave a TGI [10] of 12000 nM, a GI50 [11] of 60 nM and a TGI [11] of 14300 nM. It also gave a GI50 [12] of 62.9 nM, a TGI [12] of 12900 nM and a GI50 [13] of 29.9 nM. The TGI [13] was 11100 nM, the GI50 [14] was 322 nM and the TGI [14] was 12800 nM. It also gave a GI50 [15] of less than 10 nM, a TGI [15] of 51.9 nM and a GI50 [16] of less than 10 nM. For the same compound, the TGI [16] was 11900 nM, the GI50 [17] was 12.8 nM and the TGI [17] was 56.3 nM. It also gave a GI50 [58] of 56.3 nM, a TGI [58] of 13200 nM and a GI50 [18] of 42.4 nM. The TGI [18] was 562 nM, the GI50 [19] was 17.9 nM and the TGI [19] was 284 nM. For the same compound, the GI50 [20] was 23.9 nM, the TGI [20] was 11300 nM and the GI50 [21] was 19 nM. It also gave a TGI [21] of 10500 nM, a GI50 [22] of 17.9 nM and a TGI [22] of 322 nM. The GI50 [23] was 19 nM, the TGI [23] was 11100 nM and the GI50 [24] was less than 10 nM. For the same compound, the TGI [24] was 23.6 nM, the GI50 [59] was 77 nM and the TGI [59] was 14900 nM. The GI50 [25] was 249 nM, the TGI [25] was 18500 nM and the GI50 [26] was 32.2 nM. The TGI [26] was 11000 nM, the GI50 [27] was 20.4 nM and the TGI [27] was 6350 nM. The GI50 [28] was 18.2 nM, the TGI [28] was 192 nM and the GI50 [29] was 42.2 nM. The TGI [29] was 12100 nM, the GI50 [30] was 19.1 nM and the TGI [30] was 340 nM. The GI50 [31] was 16.1 nM, the TGI [31] was 10200 nM and the GI50 [32] was 31.6 nM. For the same compound, the TGI [32] was 842 nM, the GI50 [33] was 22.9 nM and the TGI [33] was 10000 nM. For the same compound, the GI50 [34] was 46.2 nM, the TGI [34] was 11600 nM and the GI50 [35] was 18.9 nM. The TGI [35] was 208 nM, the GI50 [36] was 12.2 nM and the TGI [36] was 87.7 nM. For the same compound, the GI50 [37] was 12.9 nM, the TGI [37] was 95.3 nM and the GI50 [38] was 31.6 nM. It also gave a TGI [38] of 294 nM, a GI50 [39] of 81.8 nM and a TGI [39] of 19000 nM. The GI50 [40] was 15.2 nM, the TGI [40] was 56.7 nM and the GI50 [41] was 14.3 nM. It also gave a TGI [41] of 207 nM, a GI50 [42] of 19.9 nM and a TGI [42] of 436 nM. The GI50 [43] was 87.2 nM, the TGI [43] was 17400 nM and the GI50 [44] was 29.2 nM. It also gave a TGI [44] of 1880 nM, a GI50 [45] of 24.4 nM and a TGI [45] of 1350 nM. It also gave a GI50 [46] of 29.4 nM, a TGI [46] of 11400 nM and a GI50 [48] of 14.9 nM. The TGI [48] was 1820 nM, the GI50 [49] was less than 10 nM and the TGI [49] was 34.7 nM. For the same compound, the GI50 [50] was 27.6 nM, the TGI [50] was 11100 nM and the GI50 [51] was 120 nM. It also gave a TGI [51] of 13300 nM, a GI50 [52] of 40.6 nM and a TGI [52] of 13300 nM. It also gave a GI50 [53] of 23.3 nM, a TGI [53] of 583 nM and a GI50 [54] of 11.3 nM. It also gave a TGI [54] of 43 nM, a GI50 [56] of 42.9 nM and a TGI [56] of 396 nM.
